This is an account of results in paper PMC11073428, “The activity of pyrazolo[4,3-e][1,2,4]triazine and pyrazolo[4,3-e]tetrazolo[1,5-b][1,2,4]triazine sulphonamide derivatives in monolayer and spheroid breast cancer cell cultures” (Journal of Enzyme Inhibition and Medicinal Chemistry, 2024).

Where two headings read alike, the source gives them in different places.

The nature of one series: in vitro. The following applies: human.
Series [1] deals with MCF-7 breast cancer cells. Kind of series: MTT viability assay, MCF-7. The following applies: for IC50: Homo sapiens, MCF7, 24 h, read-out: Cytotoxicity IC50 MCF-7.
Method: (§7) Following 24-h incubation with tested compounds, the medium was discarded from the cell cultures. Then, into each well with cells was added 1 mL of PBS and 50 µL of MTT solution (5 mg per mL). Cells were incubated at 37 °C and 5% CO2 in humidified atmosphere for a defined time appropriate for each cell line. After incubation, the solution above the cells was removed and obtained purple formazan crystals were dissolved in 1 mL DMSO. The absorbance was read at OD = 570 nm on Evolution 201 Spectrophotometer (Thermo Scientific, Waltham, MA).
The subject of series [2] is MDA-MB-231 breast cancer cells. Kind of series: MTT viability assay, MDA-MB-231. The conditions noted are these: for IC50: Homo sapiens, MDA-MB-231, 24 h, read-out: Cytotoxicity IC50 MDA-MB-231.
Method: as §7
The subject of series [3] is MCF-7 breast cancer cells. Kind of series: Apoptosis, annexin V-FITC/PI flow cytometry, MCF-7. It counts as cell-based, human. The conditions noted are these: 24 h; for early and late apoptotic cells: MCF-7, 0.5 µM. As to the method: (§1) The analysis was performed using flow cytometry Apoptosis Detection Kit II (BD Biosciences, San Diego, CA) as described previously.
Series [4] has as its system MDA-MB-231 breast cancer cells. Kind of series: Apoptosis, annexin V-FITC/PI flow cytometry, MDA-MB-231. The conditions noted are these: 24 h; for early and late apoptotic cells: MDA-MB-231, 0.5 µM. It counts as cell-based, human. The method, then: as §1
For another series, the system named is MCF-7 spheroids. As to the kind of experiment: 3D spheroid culture, MCF-7. The format is cell-based, human. The conditions noted are these: 0.25 µM and 0.5 µM. The method, then:
(§2) The 3D cell culture was carried out with 6-Well Bio-Assembler Kit in accordance with the manufacturer’s instructions (Greiner Bio-One GmbH, Frickenhausen, Germany). First, MCF-7 and MDA-MB-231 were cultured in 2D using procedure and supplied to 80% confluency and treated with nanoshuttle at concentration of 1 µL/10 000 cell and incubated overnight. Following incubation, the medium was removed, and the cells were detached by trypsin–EDTA solution and resuspended in DMEM. The cells were counted using Scepter 2.0 Handheld Automated Cell Counter (Merck, Darmstadt, Germany) and plated at the concentration 1 × 10^6 cells per well in six-well plate. Then, cells were gently tilted in the flask to evenly distribute the nanoparticle and incubated (37 °C, 5% CO2, 95–98% humidity) for 1 h with magnet on the top of the plate. The cells self-assemble to spheroids. The obtained 3D cell culture was incubated until analysis.
(§3) The visualisation of the morphological changes in 3D cell culture of MCF-7 and MDA-MB-231 was evaluated using microscope (Nikon Eclipse Ti, Tokyo, Japan).
(§4) The mean ± standard deviation (SD) for all data is presented. One-way and two-way analysis of variance (ANOVA) was conducted followed by Dunnett’s test. GraphPad 8.0.1 Prism software (GraphPad Software, San Diego, CA) was used for calculation. The analysis of spheroids area was carried out using ImageJ software from the NIH (Bethesda, MD).

For a further series, the system named is MDA-MB-231 spheroids. As to the kind of experiment: 3D spheroid culture, MDA-MB-231. It counts as cell-based, human. The conditions noted are these: 0.25 µM and 0.5 µM. As to the method:
as §2, §3, §4

Another series concerns Bax in MCF-7 cells. As to the kind of experiment: Anti-Bax antibody flow cytometry, MCF-7. The conditions noted are these: MCF-7, 24 h. The format is cell-based, human. The method, then: (§5) To evaluate the molecular mechanism of induction of apoptosis of tested compounds, the level of p53, NF-κB, mTOR, Bax, and beclin-1 was measured using appropriate antibody according to the manufacturer’s instruction. In brief, tryspinised cells were centrifuged, then supernatant was discarded, and cells were suspended in 4% FA (formaldehyde). Prepared samples were incubated 15 min at RT. Following incubation, the 2.5 mL PBS was added to each sample and centrifuged. Then, supernatant was discarded, and cells were resuspended in 90% ice-cold methanol to perform permeabilisation and left for 1 h in ice. To remove methanol, cells were rinsed with excess PBS by centrifugation. Following centrifugation, the supernatant was discarded. Then, cells were resuspended in 100 µL of appropriate diluted (1:100 in PBS) antibody conjugate (p53 (7F5) Rabbit mAb – Alexa Fluor 488 Conjugate #5429 Cell Signalling Technology, Danvers, MA; NF-κB p65 (D14E12) XP Rabbit mAb – Alexa Fluor 647 Conjugate #8801 Cell Signalling Technology, Danvers, MA; mTOR (7C10) Rabbit mAB – Alexa Fluor 647 #5048 Cell Signalling Technology, Danvers, MA; FITC Anti-Bax antibody (T22-A) #ab139543, Abcam, Cambridge, UK) and incubated 1 h in the dark at RT. Afterwards, cells were washed by centrifugation in 2 mL of incubation buffer. Finally, supernatant was removed and 300 µL PBS was added to each sample and pipetted. The analysis was performed by flow cytometry (BD FACSCanto II, Becton Dickinson Biosciences Systems, San Jose, CA) using FACSDiva software ver. 6.1.3.

For a further series, the system named is Bax in MDA-MB-231 cells. Kind of series: Anti-Bax antibody flow cytometry, MDA-MB-231. It counts as cell-based, human. The following applies: MDA-MB-231, 24 h. As to the method:
as §5

A further series relates to beclin-1 in MCF-7 cells. As to the kind of experiment: Anti-beclin-1 antibody flow cytometry, MCF-7. It counts as cell-based, human. The following applies: MCF-7, 0.5 µM, 24 h. As to the method: (§6) The fixation and permeabilisation were performed as described above. Cells were resuspended in 100 µL of diluted primary antibody (1:100 in PBS, anti-beclin 1 antibody (2A4) #ab114071, Abcam, Cambridge, UK) and incubated 30 min in the dark at RT. The cells were washed three times by centrifugation in PBS. Then to each probe, 100 µL of diluted fluorochrome-labelled secondary antibody (1:100 in PBS; goat anti-mouse IgG H&L – Alexa Fluor 488 #ab150113, Abcam, Cambridge, UK) was added and incubated 30 min in dark at RT. Then, cells were rinsed with 2.5 mL PBS. In the last step, supernatant was discarded and cells were resuspended in 300 µL PBS and pipetted. The analysis was carried out by flow cytometry.

Series [5] relates to beclin-1 in MDA-MB-231 cells. Kind of series: Anti-beclin-1 antibody flow cytometry, MDA-MB-231. It counts as cell-based, human. The following applies: MDA-MB-231, 0.5 µM, 24 h. The method, then:
as §6

For series [6], the system named is MCF-7 breast cancer cells. Set-up: method as in PMID 27488500. The following applies: 24 h incubation; read-out: IC50 in MCF-7 (previous studies); cited from earlier work.
In series [7] the test system is MDA-MB-231 breast cancer cells. Set-up: method as in PMID 27488500. The following applies: 24 h incubation; read-out: IC50 in MDA-MB-231 (previous studies); cited from earlier work.
The test system of series [8] is MCF-10A normal breast cells. Set-up: method as in PMID 32575817. The following applies: 24 h incubation; read-out: IC50 in MCF-10A (previous studies); cited from earlier work.
[9] abbreviates: ratio of cytotoxicity, 3a vs 2a, 3b vs 2b.

`Cc1nn(-c2ccc(S(=O)(=O)N[C@H](CO)Cc3ccccc3)cc2)c2nnc(S(C)(=O)=O)nc12` [Compound 2a, (S)-N-(1-Hydroxy-3-phenylpropan-2-yl)-4-(3-methyl-5-(methylsulfonyl)-1H-pyrazolo[4,3-e][1,2,4]triazin-1-yl)benzenesulfonamide] gave a melting point of 130 to 134 °C. The IC50 at 24 h in “in vitro” is > 10 µM. Further, the IC50 in [1] is 6 ± 0.38 µM. In series [2], the IC50 was determined as 9.2 ± 0.78 µM.
For the compound `Cc1nn(-c2ccc(S(=O)(=O)N[C@@H](CO)Cc3ccccc3)cc2)c2nnc(S(C)(=O)=O)nc12` [Compound 2b, (R)-N-(1-Hydroxy-3-phenylpropan-2-yl)-4-(3-methyl-5-(methylsulfonyl)-1H-pyrazolo[4,3-e][1,2,4]triazin-1-yl)benzenesulfonamide], the melting point lay within 124 to 128 °C. Besides, the apoptotic cells in series [3] (MCF-7, 0.25 µM) was determined as 9.8 ± 1.2%. Besides, the “early and late apoptotic cells” value in series [3] is listed as 14.6 ± 1.7%. The same compound displayed an apoptotic cells in [4] (MDA-MB-231, 0.25 µM) of 5.7 ± 0.6%. Moreover, the “early and late apoptotic cells” value in series [4] is reported as 5.8 ± 1.8%. For the same compound, in the series with MCF-7 spheroids, the “effect on spheroid formation (in words)” value is reported as “slower formation of spheroids compared to untreated cells”. Moreover, the “effect on spheroid formation (in words)” value with MDA-MB-231 spheroids is recorded as “slower formation of spheroids compared to untreated cells”. Also, the IC50 at 24 h in “in vitro” is > 10 µM. Also, the IC50 in series [1] was 5.5 ± 0.39 µM. In addition, the half-maximal inhibitory concentration (IC50) in series [2] is 7.8 ± 0.53 µM.
With `Cc1nn(-c2ccc(S(=O)(=O)N[C@H](CO)Cc3ccccc3)cc2)c2nn3nnnc3nc12` [Compound 3a, (S)-N-(1-Hydroxy-3-phenylpropan-2-yl)-4-(7-methyl-5H-pyrazolo[4,3-e]tetrazolo[1,5-b][1,2,4]triazin-6-yl)benzenesulfonamide], the melting point lay within 172 to 176 °C. Besides, the IC50 at 24 h in “in vitro” worked out at 3.5 ± 0.18 µM. Moreover, in series [1], the IC50 turned out to be 0.35 ± 0.08 µM. In addition, in [1] (setting [9]), the “times stronger than the corresponding sulphonyl derivative (2a or 2b), MCF-7” value is recorded as 17 times. Further, the IC50 in [2] came out at 0.71 ± 0.14 µM. For the same compound, the “times stronger than the corresponding sulphonyl derivative (2a or 2b), MDA-MB-231” value in series [2] (setting [9]) was ~13 times.
Regarding `N.N.[Cl][Pt][Cl]` [Cisplatin, cisplatin, reference compound], the “early and late apoptotic cells” value in [3] is reported as 7.1 ± 0.9%; in [4], 7.6 ± 0.6%. Further, the “number of cells with active Bax (in words)” value in the series with Bax in MCF-7 cells and in the series on Bax in MDA-MB-231 cells was “at the control level” each time. Also, the “cells with active beclin-1” value with beclin-1 in MCF-7 cells is 4.1 ± 0.5%; in series [5] it was 3.6 ± 0.7%. The “effect on spheroid formation (in words)” value with MCF-7 spheroids and in the series on MDA-MB-231 spheroids was “slightly affected growth of spheroids” throughout. The results for the IC50 in series [6], in [7] and in series [8] were 93 µM, 82 µM and > 100 µM, respectively.
